Laboratory results published in patent US12226418B2, “Dosing regimen for the treatment of PI3K related disorders” (Incyte Corporation, priority 2018, dated 2025).

Columns and labels:
[1] = test system: Pfeiffer cell line (diffuse large B cell lymphoma); experiment: Pfeiffer cell proliferation assay; format: cell-based, human; details: for IC50: Homo sapiens, Pfeiffer, [3H]-thymidine incorporation
Description: Pfeiffer cell line (diffuse large B cell lymphoma) are purchased from ATCC (Manassas, VA) and maintained in the culture medium recommended (RPMI and 10% FBS). To measure the anti-proliferation activity of the compounds, the Pfeiffer cells are plated with the culture medium (2×10^3 cells/well/per 200 μl) into 96-well ultra-low binding plates (Corning, Corning, NY), in the presence or absence of a concentration range of test compounds. After 3-4 days, [^3H]-thymidine (1 μCi/well) (PerkinElmer, Boston, MA) in PBS is then added to the cell culture for an additional 12 hours before the incorporated radioactivity is separated by filtration with water through GF/B filters (Packard Bioscience, Meridenj, CT) and measured by liquid scintillation counting with a TopCount (Packard Bioscience).

[2] = test system: phosphorylated AKT (pAKT; Ser473) in SU-DHL cells; experiment: Ex vivo phosphorylated AKT (pAKT) pharmacodynamic assay in patient whole blood; format: cell-based, human; details: all Compound 1C doses, up to 6 hours post-dose
Description: Compound 1C was dosed once daily and levels of phosphorylated AKT (pAKT; Ser473) were measured by flow cytometry in SU-DHL cells added to patient whole blood after Compound 1C treatment on day 15 of cycle 1.
(§1) Exploratory endpoints included: duration of response (DOR, duration of time from first response to death or disease progression, whichever occurred first); progression free survival (PFS, duration of time from first study dose to death or disease progression, whichever occurred first); population PK; pharmacodynamic (PD) relationship between PI3Kδ inhibition (as determined by an ex vivo phosphorylated AKT [pAKT] assay).

[3] = Clinical pharmacokinetics and food effect, Compound 1C monotherapy; format: in vivo
Description: Patients were assessed on Days 1, 8, and 15 of Cycle 1 and Day 1 (±3) of each subsequent treatment cycle.

[4] = test system: relapsed or refractory B-cell malignancies; experiment: Efficacy, Compound 1C monotherapy; format: in vivo, human; details: for durable response: included QW dosing
Description: The secondary endpoints were efficacy and PK. Efficacy was measured by best overall response rate (ORR), defined as the proportion of patients achieving a partial response (PR) or complete response (CR). Response was evaluated (per investigator's assessment) every 9 weeks based on the Lugano classification of lymphoma response criteria for HL and NHL (Cheson B. D. et al, Journal of Clinical Oncology, 2014; 32(27):3059-3067), the International Working Group on Chronic Lymphocytic Leukemia criteria for chronic lymphocytic leukemia (CLL) (Hallek M. et al, Blood, 2008; 111(12):5446-5456; Cheson B. D. et al, J Clin Oncol, 2012; 30(23):2820-2822)), and the VIth International Workshop on Waldenström Macroglobulinemia response assessment for Waldenström Macroglobulinemia (WM) (Owen R. G. et al, Br J Haematol, 2013; 160(2):171-176). If the patient's response to treatment was assessed by PET and CTI/MRI, then the PET result was used for response endpoints; CT/MRI result was used for an assessment if PET result was not available for the assessment; CT/MRI was used for response endpoints if it was the only form of assessment available for the patient.
as §1

In the case of `CCOc1c(C(C)n2nc(C)c3c(N)ncnc32)cc(Cl)c(F)c1C1CNC(=O)C1` (single isomer, unassigned) [Example 1B, 4-{3-[1-(4-amino-3-methyl-1H-pyrazolo[3,4-d]pyrimidin-1-yl)ethyl]-5-chloro-2-ethoxy-6-fluorophenyl}pyrrolidin-2-one], the IC50 [1] is reported as ≤ 10 nM.

For `CCOc1c(C(C)n2nc(C)c3c(N)ncnc32)cc(Cl)c(F)c1C1CNC(=O)C1` (single isomer, unassigned) [Example 1C], the “sensitivity of Pfeiffer cancer cells to anti-proliferative effects in vitro” value [1] was “sensitive”.

With `CCOc1c(C(C)n2nc(C)c3c(N)ncnc32)cc(Cl)c(F)c1C1CNC(=O)O1` (single isomer, unassigned) [Example 2C, 5-{3-[1-(4-amino-3-methyl-1H-pyrazolo[3,4-d]pyrimidin-1-yl)ethyl]-5-chloro-2-ethoxy-6-fluorophenyl}-1,3-oxazolidin-2-one] the IC50 [1] was ≤ 10 nM.

With `CCOc1c([C@H](C)n2nc(C)c3c(N)ncnc32)cc(Cl)c(F)c1[C@@H]1CNC(=O)C1.Cl` [Compound 1C, (R)-4-(3-((S)-1-(4-amino-3-methyl-1H-pyrazolo[3,4-d]pyrimidin-1-yl)ethyl)-5-chloro-2-ethoxy-6-fluorophenyl)pyrrolidin-2-one hydrochloric acid salt] the “inhibition of pAKT in whole blood” value [2] was “near-maximal inhibition”, the “Cmax above the IC90 for pAKT inhibition” value ([3]; 20 mg QD) was 16 fold and the “Ctrough above the IC90 for pAKT inhibition” value ([3]; 20 mg QD) was 2 fold. For the same compound, the “decrease in AUC with high fat meal” value ([3]; food effect, 12 patients) was 10%, the “decrease in Cmax with high fat meal compared with fasted state” value ([3]; food effect, 12 patients) was 42% and the “fed versus fasted geometric mean ratio for AUC” value ([3]; food effect, 12 patients) was 0.90. The “food effect analysis, timing of meals” value ([3]; human, in vivo) was “may be dosed without regard to timing of meals”, the CR/CMR ([4]; CLL, N 6) was 0 (0) n (%) and the “Not evaluable/ not assessed” value ([4]; CLL, N 6) was 1 (17) n (%). The ORR ([4]; CLL, N 6) was 2 (33 [4-78]) n (% [95% CI]), the PD/PMD ([4]; CLL, N 6) was 1 (17) n (%) and the PR/PMR ([4]; CLL, N 6) was 2 (33) n (%). The ORR ([4]; DLBCL) was 30%, the “median duration of response” value ([4]; DLBCL) was 13.5 months and the CR/CMR ([4]; DLBCL ABC, N 2) was 0 (0) n (%). The “Not evaluable/ not assessed” value ([4]; DLBCL ABC, N 2) was 0 n (%), the ORR ([4]; DLBCL ABC, N 2) was 1 (50 [1-99]) n (% [95% CI]) and the PD/PMD ([4]; DLBCL ABC, N 2) was 1 (50) n (%). For the same compound, the PR/PMR ([4]; DLBCL ABC, N 2) was 1 (50) n (%), the CR/CMR ([4]; DLBCL GCB, N 19) was 4 (21) n (%) and the “Not evaluable/ not assessed” value ([4]; DLBCL GCB, N 19) was 1 (5) n (%). The ORR ([4]; DLBCL GCB, N 19) was 6 (32 [13-57]) n (% [95% CI]), the PD/PMD ([4]; DLBCL GCB, N 19) was 9 (47) n (%) and the PR/PMR ([4]; DLBCL GCB, N 19) was 2 (11) n (%). For the same compound, the “deep responses (>75% decrease from baseline in target lesion size), patients” value ([4]; DLBCL, 20 evaluable) was 10%, the CR/CMR ([4]; DLBCL, N 23) was 4 (17) n (%) and the “Not evaluable/ not assessed” value ([4]; DLBCL, N 23) was 1 (4) n (%). The ORR ([4]; DLBCL, N 23) was 7 (30 [13-53]) n (% [95% CI]), the PD/PMD ([4]; DLBCL, N 23) was 11 (48) n (%) and the PR/PMR ([4]; DLBCL, N 23) was 3 (13) n (%). For the same compound, the durable response ([4]; DLBCL) was ~19 months, the ORR ([4]; FL) was 71% and the “median duration of response” value ([4]; FL) was “not reached”. The “deep responses (>75% decrease from baseline in target lesion size), patients” value ([4]; FL, 14 evaluable) was 50%, the CR/CMR ([4]; FL, N 14) was 3 (21) n (%) and the “Not evaluable/ not assessed” value ([4]; FL, N 14) was 1 (7) n (%). The ORR ([4]; FL, N 14) was 10 (71 [42-92]) n (% [95% CI]), the PD/PMD ([4]; FL, N 14) was 2 (14) n (%) and the PR/PMR ([4]; FL, N 14) was 7 (50) n (%). The durable response ([4]; FL) was ~17 months, the CR/CMR ([4]; HL, N 10) was 0 (0) n (%) and the “Not evaluable/ not assessed” value ([4]; HL, N 10) was 1 (10) n (%). The ORR ([4]; HL, N 10) was 2 (20 [3-56]) n (% [95% CI]), the PD/PMD ([4]; HL, N 10) was 4 (40) n (%) and the PR/PMR ([4]; HL, N 10) was 2 (20) n (%). The ORR ([4]; MCL) was 67%, the “median duration of response” value ([4]; MCL) was “not reached” and the “deep responses (>75% decrease from baseline in target lesion size), patients” value ([4]; MCL, 8 evaluable) was 38%. For the same compound, the CR/CMR ([4]; MCL, N 9) was 4 (44) n (%), the “Not evaluable/ not assessed” value ([4]; MCL, N 9) was 1 (11) n (%) and the ORR ([4]; MCL, N 9) was 6 (67 [30-93]) n (% [95% CI]). For the same compound, the PD/PMD ([4]; MCL, N 9) was 0 (0) n (%), the PR/PMR ([4]; MCL, N 9) was 2 (22) n (%) and the durable response ([4]; MCL) was ≥ 14 months. The ORR ([4]; MZL) was 78%, the “median duration of response” value ([4]; MZL) was 4.4 months and the “deep responses (>75% decrease from baseline in target lesion size), patients” value ([4]; MZL, 7 evaluable) was 57%. For the same compound, the “responses occurring by the first assessment (~9 weeks)” value ([4]; MZL, FL, MCL, DLBCL) was 93%, the CR/CMR ([4]; MZL, N 9) was 3 (33) n (%) and the “Not evaluable/ not assessed” value ([4]; MZL, N 9) was 0 n (%). For the same compound, the ORR ([4]; MZL, N 9) was 7 (78 [40-97]) n (% [95% CI]), the PD/PMD ([4]; MZL, N 9) was 1 (11) n (%) and the PR/PMR ([4]; MZL, N 9) was 4 (44) n (%). For the same compound, the durable response ([4]; MZL) was ~10 months, the “durable responses among patients receiving QW dosing” value ([4]; QW dosing) was > 6 months and the CR/CMR ([4]; WM, N 1) was 0 (0) n (%). For the same compound, the “Not evaluable/ not assessed” value ([4]; WM, N 1) was 0 n (%), the ORR ([4]; WM, N 1) was 1 (100 [3-100]) n (% [95% CI]) and the PD/PMD ([4]; WM, N 1) was 0 (0) n (%). The PR/PMR ([4]; WM, N 1) was 1 (100) n (%), the “patients who achieved an objective response” value ([4]; all patients with NHL administered 20 mg QD at time of regimen change) was 11 patients and the “objective responses at the first disease assessment” value ([4]; of 11 patients with NHL administered 20 mg QD) was 10. For the same compound, the “objective responses in patients previously treated with ibrutinib” value ([4]; of the 4 patients with MCL) was 2 patients and the “deep responses, patients” value ([4]; relapsed or refractory B-cell NHL, 10 mg QD to 45 mg QD) was > 30%.
